Laboratory results from patent publication EP1463487B1, “LIPOSOMAL DELIVERY OF VITAMIN E BASED COMPOUNDS” (RESEARCH DEVELOPMENT FOUNDATION, priority 2001, dated 2003).
Entries after “also recorded” stand apart in the source; their conditions may differ.

Experiments:
[1] = test system: cp-70 human ovarian cancer cells; experiment: Apoptosis of cp-70 ovarian cancer cells in culture; format: cell-based; details: treated in culture with α-TEA
66 cl.4-GFP cells [2] = experiment: Fluorescent lung micrometastases of 66 cl.4-GFP tumors in Balb/c mice; format: in vivo; details: for Inhibition (%) Lung Metastases: Liposomal; for numbers of micrometastases (± S. E.): α-TEA EtOH/peanut oil by gavage 5 mg/day
Description: Metastastic lesions in the five lung lobes were counted visually at time of sacrifice. Fluorescent green micro-metastatic cancer cell colonies in the left lung lobe and lymph nodes were counted using a Nikon fluorescence microscope (TE-200) with a 20 x objective (200 x magnification) and Image-Pro Plus (version 4.1; Media Cybernetics, Silver Spring, MD) software associated with the microscope. Fluorescent lesions were separated into three size grouping: <5 µm , 5-10 µm and >10 µm.
At sacrifice, the left lung lobe of each mouse of flash frozen and saves for detection of GFP expressing micrometatstic lesions via fluorescent microscopy.

[3] = Body weight and long term safety of α-TEA treated mice; format: in vivo, Balb/c mice
Description: 50 mice were assigned (10 per group) to aerosol treatment, aerosol control, oral treatment, oral control, or to the no treatment group so that the average tumor volume for all groups were closely matched. […] Tumors were measured using calipers every other day, and volumes were calculated using the formula: volume (mm^3) = [width (mm)^2 X length (mm)] /2. Body weights were determined weekly.
Balb/c mice, 10/group (4 groups, 40 mice total) are inoculated with 200,000 66 cl.4 GFP cells as described on day 0. Nine days after tumor inoculation, treatments groups are initiated: Aerosol Treatment (TX) = aerosol delivery of α-TEA liposome (5 mg/mouse)/daily through day 23. Aerosol Control = Aerosol delivery of liposome composition only daily through day 23. Gavage treatment = gavage administration of α-TEA at 5 mg/mouse in ethanol/peanut oil daily through day 23. Gavage control = gavage administration of ethanol/peanut oil only through day 23. Mice were weighed at the initiation of treatment (day 9) and thereafter on days 13, 16, 20, and 23 (Fig. 6). Data are presented as the mean +/- standard deviation.

66 cl.4-GFP cells [4] = experiment: Colony-forming assay; format: cell-based, mouse; details: 10 days
Description: 66 cl.4-GFP cells were seeded at 600 cells per 35 X 1 0 mm tissue culture plate (Nunclon, Rochester, NY) and allowed to adhere over night at 37° C. […] Treatments were left on the cells for 10 days without change of media. After 10 days, media were removed and plates were washed with PBS three times. Cells were stained for 30 min with 1% methylene blue in PBS and colonies > 0.5 mm manually counted.

66 cl.4-GFP cells [5] = experiment: Apoptosis by morphological evaluation of DAPI-stained nuclei; format: cell-based, mouse; details: for apoptosis: three days
[6] = test system: Poly (ADP-Ribose) Polymerase (PARP); experiment: Western immunoblot detection of PARP cleavage fragment; format: cell-based, mouse; details: 48 hours
Description: Poly (ADP-Ribose) Polymerase cleavage was analyzed as an alternate method for detecting apoptosis. 66 cl.4-GFP cells were treated as described above for the DAPI assay. Following the PBS wash, cells were suspended in lysis buffer (1X PBS, 1% Nonidet P-40, 0.5% sodium deoxycholate, 0.1% sodium dodecyl sulfate (SDS), 1 µg/ml leupeptin, 1 µg/ml aprotinin, 1mM dithiothreitol (DTT), 2 mM sodium orthovanadate, 10 µg/ml phenylmethylsulfonyl fluoride (PMSF)) for 30 min at 4°C, vortexed, and supernatants collected by centrifugation at 15,000 X g for 20 min. Protein concentrations were determined using the Bio-Rad (Bradford) protein assay (Bio-Rad Laboratories, Hercules, CA), and samples (100 µg/lane) resolved on 7.5% SDS-polyacrylamide gels electrophoresed under reducing conditions.
Proteins were electroblotted onto a nitrocellulose membrane (0.2 µM pore Optitran BA-S-supported nitrocellulose; Schleicher and Schuell, Keene, NH). After transfer, membranes were blocked with blocking buffer [25 mM Tris-HCl (pH 8.0), 125 mM NaCl, 0.5% Tween-20, and 5% non-fat dry milk] for 45 min at room temperature. Immunoblotting was performed using 1 µg of primary rabbit anti-human Poly (ADP-Ribose) Polymerase antibody [PARP (H-250), Santa Cruz Biotechnology, Santa Cruz, CA], and horseradish peroxidase-conjugated goat anti-rabbit immunoglobulin was used as the secondary antibody (Jackson Immunoresearch Laboratory, West Grove, PA) at a 1:3,000 dilution. Horseradish peroxidase-labeled bands from washed blots were detected by enhanced chemiluminescence (Pierce, Rockford, IL) and autoradiography (Kodak BioMax film; Rochester, NY).

Cc1c(C)c2c(c(C)c1OCC(=O)O)CC[C@@](C)(CCC[C@H](C)CCC[C@H](C)CCCC(C)C)O2 [α-TEA, 2,5,7,8-tetramethyl-(2R-(4R,8R,12-trimethyltridecyl)chroman-6-yloxy) acetic acid]
apoptosis [1]: undergo apoptosis
Inhibition (%) Metastases Lung (66 cl.4-GFP cells [2]; Aerosol, in nebulizer per mouse: α-TEA 5 mg/d, 9NC 2 µg/d, combination 5 mg+2µg/d): 71%
Inhibition (%) Lung Metastases (number of lung tumor micrometastases reduced) (66 cl.4-GFP cells [2]; EtOH/P Oil, Gavage, 5 mg/d): 62%
Inhibition (%) Lung Metastases (66 cl.4-GFP cells [2]; Aerosol, 5 mg/d, in comparison to aerosol control): 81%
Inhibition (%) Lung Metastases (66 cl.4-GFP cells [2]; Gavage, 3 mg/2Xd): 59%
micrometatstatic lung lesions (66 cl.4-GFP cells [2]; liposomal formulation via gavage, 6 mg compound per day, 21 days, left lung lobe): 21.5 /lung
mean number of micrometastases (± S. E.) (66 cl.4-GFP cells [2]; liposomal α-TEA/aerosol, left lung lobe, N= 8): 11.4 ± 3.5
numbers of micrometastases (± S. E.) (66 cl.4-GFP cells [2]; size 5-10 µm): 11.3± 1.8
numbers of micrometastases (± S. E.) (66 cl.4-GFP cells [2]; size < 5 µm): 6.8±1.5
numbers of micrometastases (± S. E.) (66 cl.4-GFP cells [2]; size >10 µm): 3.1±1.2
long term adverse effects ([3]; non-tumor bearing mice treated by aerosol or gavage for 17 days, kept eleven months): did not show any adverse effects
body weight ([3]; tumor bearing mice, α-TEA liposome aerosol or gavage in ethanol/peanut oil, 5 mg/mouse daily, versus controls): no significant weight differences; also recorded: No differences in mean body weights
colonies (average ± S. D.) (66 cl.4-GFP cells [4]; 1.25 µg/ml): 98 ± 20 colonies
colonies (average ± S. D.) (66 cl.4-GFP cells [4]; 2.5 µg/ml): 21 ± 6 colonies
colonies (66 cl.4-GFP cells [4]; 5 µg/ml): No colonies formed
colonies (66 cl.4-GFP cells [4]; 10 µg/ml): No colonies formed
inhibition at 1.25 µg/mL (66 cl.4-GFP cells [4]; Mus musculus, 240 h, 1.25 µg/ml, compared to EtOH control, read-out: decreased colony formation): 30%
inhibition at 2.5 µg/mL (66 cl.4-GFP cells [4]; Mus musculus, 240 h, 2.5 µg/ml, compared to EtOH control, read-out: decreased colony formation): 85%
inhibition at 5 µg/mL (66 cl.4-GFP cells [4]; Mus musculus, 240 h, 5 µg/ml, compared to EtOH control, read-out: decreased colony formation): 100%
apoptosis (66 cl.4-GFP cells [5]; 2.5 µg/ml): 5%
apoptosis (66 cl.4-GFP cells [5]; 5 µg/ml): 6%
apoptosis (time course) (66 cl.4-GFP cells [5]; 10 µg/ml, 2 days): 20%
apoptosis (time course) (66 cl.4-GFP cells [5]; 10 µg/ml, 3 days): 35%
apoptosis (time course) (66 cl.4-GFP cells [5]; 10 µg/ml, 4 days): 47%
apoptosis (time course) (66 cl.4-GFP cells [5]; 10 µg/ml, 5 days): 58%
apoptosis (66 cl.4-GFP cells [5]; 10 µg/ml): 34%
apoptosis (66 cl.4-GFP cells [5]; 20 µg/ml): 50%
84 kDa cleavage fragment of PARP ([6]; 5 µg/ml): only intact PARP protein was detected
84 kDa cleavage fragment of PARP ([6]; 10 µg/ml): evident
84 kDa cleavage fragment of PARP ([6]; 20 µg/ml): evident
